The target of this assay is His-Tagged hOGA (human O-GlcNAcase) (Homo sapiens (Human), UniProt O60502). Put plainly: Human O-GlcNAcase enzyme inhibition assay (OGA enzyme inhibition assay). Type of assay: biochemical. The note with it: His-Tagged hOGA 20 nM, FL-GlcNAc 10 μM, 60 min at room temperature, pH 6.5; activity classes. As to the method:
Example B01: Human O-GlcNAcase Enzyme Inhibition Assay
5 μl of the appropriate concentration of a solution of inhibitor in McIlvaine's Buffer (pH 6.5) in 2% DMSO (for a dose response curve calculation) is added into each well of a 384-well plate (Greiner, 781900). Then, 20 nM of His-Tagged hOGA and 10 μM of FL-GlcNAc (Fluorescein mono-beta-D-(2-deoxy-2-N-acetyl) glucopyranoside; Marker Gene Technologies Inc, M1485) were added to the 384-well plate for a final volume of 20 μl. After incubation for 60 min at room temperature, the reaction was terminated by the addition of 10 μL of stop buffer (200 mM glycine, pH 10.75). The level of fluorescence (Δexc 485 nm; (Δemm 520 nm) was read on a PHERAstar machine. The amount of fluorescence measured was plotted against the concentration of inhibitor to produce a sigmoidal dose response curve to calculate an IC50. All individual data was corrected by subtraction of the background (Thiamet 3 uM=100% inhibition) whilst 0.5% DMSO was considered as the control value (no inhibition).

Chain of His-Tagged hOGA (human O-GlcNAcase) (O60502 whole entry): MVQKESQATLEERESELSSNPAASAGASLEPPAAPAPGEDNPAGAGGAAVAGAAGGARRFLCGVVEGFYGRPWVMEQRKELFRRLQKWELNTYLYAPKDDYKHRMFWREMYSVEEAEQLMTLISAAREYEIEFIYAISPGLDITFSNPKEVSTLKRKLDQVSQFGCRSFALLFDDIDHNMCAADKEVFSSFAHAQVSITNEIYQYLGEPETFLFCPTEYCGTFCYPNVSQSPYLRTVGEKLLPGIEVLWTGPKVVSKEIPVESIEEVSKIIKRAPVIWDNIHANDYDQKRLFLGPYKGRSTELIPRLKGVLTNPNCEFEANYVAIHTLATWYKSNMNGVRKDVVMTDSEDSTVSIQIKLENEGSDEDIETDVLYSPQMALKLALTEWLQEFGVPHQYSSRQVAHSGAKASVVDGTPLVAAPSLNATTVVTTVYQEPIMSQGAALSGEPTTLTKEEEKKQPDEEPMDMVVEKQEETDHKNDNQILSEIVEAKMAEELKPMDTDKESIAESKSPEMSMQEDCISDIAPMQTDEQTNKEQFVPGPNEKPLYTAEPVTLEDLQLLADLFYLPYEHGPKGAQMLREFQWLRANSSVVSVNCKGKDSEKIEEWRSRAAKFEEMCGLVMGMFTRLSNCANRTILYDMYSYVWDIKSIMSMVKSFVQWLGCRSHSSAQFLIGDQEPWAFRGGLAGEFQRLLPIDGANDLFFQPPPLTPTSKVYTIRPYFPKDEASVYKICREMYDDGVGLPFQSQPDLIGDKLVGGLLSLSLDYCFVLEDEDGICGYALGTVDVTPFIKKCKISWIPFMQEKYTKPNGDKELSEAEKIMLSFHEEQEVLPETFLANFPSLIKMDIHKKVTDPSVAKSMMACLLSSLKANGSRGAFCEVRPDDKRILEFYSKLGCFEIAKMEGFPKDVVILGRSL

Turning to “5-(1-(7-methoxy-2-methyl-1,2,4,5-tetrahydro-3H-benzo[d]azepin-3-yl)ethyl)benzo[d]thiazole [Example 19]”, the half-maximal inhibitory concentration (IC50) – broadly, the concentration that inhibits the measured activity by half – was in the range of 50 to 200 nM. The figure for `COc1ccc2c(c1Cl)CCN(C(C)c1ccc3scnc3c1)CC2` (racemic) [Example 10, 5-(1-(6-chloro-7-methoxy-1,2,4,5-tetrahydro-3H-benzo[d]azepin-3-yl)ethyl)benzo[d]thiazole] is 50 to 200 nM; for `COc1cc2c(cc1Cl)CCN(C(C)c1ccc3scnc3c1)CC2` (racemic) [Example 11, 5-(1-(7-chloro-8-methoxy-1,2,4,5-tetrahydro-3H-benzo[d]azepin-3-yl)ethyl)benzo[d]thiazole] it is less than 50 nM. The figure for `COc1ccc2c(c1)CCN(C(C)c1ccc3nccnc3c1)CC2` (racemic) [Example 12, 7-methoxy-3-(1-(quinoxalin-6-yl)ethyl)-2,3,4,5-tetrahydro-1H-benzo[d]azepine] is less than 50 nM.

The compound `CC(c1ccc2scnc2c1)N1CCCc2cc(Br)ccc2C1` (racemic) [Example 13, 5-(1-(7-bromo-1,3,4,5-tetrahydro-2H-benzo[c]azepin-2-yl)ethyl)benzo[d]thiazole] registered an IC50 of 200 to 1000 nM. Under `CC(c1ccc2scnc2c1)N1CCc2ccc(Br)cc2CC1` (racemic) [Example 14, 5-(1-(7-bromo-1,2,4,5-tetrahydro-3H-benzo[d]azepin-3-yl)ethyl)benzo[d]thiazole] stands less than 50 nM; under `CC(c1ccc2scnc2c1)N1CCCc2cc(C#N)ccc2C1` (racemic) [Example 15, 2-(1-(benzo[d]thiazol-5-yl)ethyl)-2,3,4,5-tetrahydro-1H-benzo[c]azepine-7-carbonitrile], 200 to 1000 nM.

For `CC(c1ccc2scnc2c1)N1CCc2ccc(C#N)cc2CC1` (racemic) [Example 16, 3-(1-(benzo[d]thiazol-5-yl)ethyl)-2,3,4,5-tetrahydro-1H-benzo[d]azepine-7-carbonitrile], the IC50 was less than 50 nM. Under `CC(c1ccc2scnc2c1)N1CCCc2cc(S(C)(=O)=O)ccc2C1` (racemic) [Example 17, 5-(1-(7-(methylsulfonyl)-1,3,4,5-tetrahydro-2H-benzo[c]azepin-2-yl)ethyl)benzo[d]thiazole] stands 200 to 1000 nM. Under `CC(c1ccc2scnc2c1)N1CCc2ccc(S(C)(=O)=O)cc2CC1` (racemic) [Example 18, 5-(1-(7-(methylsulfonyl)-1,2,4,5-tetrahydro-3H-benzo[d]azepin-3-yl)ethyl)benzo[d]thiazole] stands less than 50 nM; under `CC(c1ccc2scnc2c1)N1CCc2ccccc2CC1` (racemic) [Example 20, 5-(1-(1,2,4,5-tetrahydro-3H-benzo[d]azepin-3-yl)ethyl)benzo[d]thiazole], less than 50 nM; under `CC(c1ccc2scnc2c1)N1CCc2ccc(Oc3cccc(F)n3)cc2CC1` (racemic) [Example 23, 5-(1-(7-((6-fluoropyridin-2-yl)oxy)-1,2,4,5-tetrahydro-3H-benzo[d]azepin-3-yl)ethyl)benzo[d]thiazole], less than 50 nM. The figure for `CC(c1ccc2scnc2c1)N1CCc2ccc(OC(F)F)cc2CC1` (racemic) [Example 24, 5-(1-(7-(difluoromethoxy)-1,2,4,5-tetrahydro-3H-benzo[d]azepin-3-yl)ethyl)benzo[d]thiazole] is less than 50 nM; for `CC(C)Oc1ccc2c(c1)CCN(C(C)c1ccc3scnc3c1)CC2` (racemic) [Example 25, 5-(1-(7-isopropoxy-1,2,4,5-tetrahydro-3H-benzo[d]azepin-3-yl)ethyl)benzo[d]thiazole] it is 50 to 200 nM; for `CC(C)COc1ccc2c(c1)CCN(C(C)c1ccc3scnc3c1)CC2` (racemic) [Example 26, 5-(1-(7-isobutoxy-1,2,4,5-tetrahydro-3H-benzo[d]azepin-3-yl)ethyl)benzo[d]thiazole] it is 200 to 1000 nM. In the case of `COc1ccc2c(c1)CCN(Cc1ccc3nsnc3c1)C(C)C2` (racemic) [Example 28, 5-((7-methoxy-2-methyl-1,2,4,5-tetrahydro-3H-benzo[d]azepin-3-yl)methyl)benzo[c][1,2,5]thiadiazole], the IC50 was in the range of 1000 to 10000 nM.

Turning to `COc1ccc2c(c1)CCN(Cc1ccc3scnc3c1)C(C)C2` (racemic) [Example 29, 5-((7-methoxy-2-methyl-1,2,4,5-tetrahydro-3H-benzo[d]azepin-3-yl)methyl)benzo[d]thiazole], the IC50 lay within 1000 to 10000 nM. Under `COc1ccc2c(c1)CCN(Cc1ccc3c(c1)OCCO3)C(C)C2` (racemic) [Example 30, 3-((2,3-dihydrobenzo[b][1,4]dioxin-6-yl)methyl)-7-methoxy-2-methyl-2,3,4,5-tetrahydro-1H-benzo[d]azepine] stands 1000 to 10000 nM; under `COc1ccc2c(n1)CCN(C(C)c1ccc3scnc3c1)CC2` (racemic) [Example 31, 5-(1-(2-methoxy-5,6,8,9-tetrahydro-7H-pyrido[2,3-d]azepin-7-yl)ethyl)benzo[d]thiazole], less than 50 nM; under `CC(c1ccc2scnc2c1)N1CCc2ccc(-c3ccccn3)cc2CC1` (racemic) [Example 32, 5-(1-(7-(pyridin-2-yl)-1,2,4,5-tetrahydro-3H-benzo[d]azepin-3-yl)ethyl)benzo[d]thiazole], 1000 to 10000 nM. The figure for `CC(c1ccc2scnc2c1)N1CCc2ccc(O)cc2CC1` (racemic) [Example 33, 3-(1-(benzo[d]thiazol-5-yl)ethyl)-2,3,4,5-tetrahydro-1H-benzo[d]azepin-7-ol] is less than 50 nM; for `COc1ccc2c(c1)CCN(C(C)c1cnc3c(c1)OCC3)CC2` (racemic) [Example 34, 6-(1-(7-methoxy-1,2,4,5-tetrahydro-3H-benzo[d]azepin-3-yl)ethyl)-2,3-dihydrofuro[3,2-b]pyridine] it is less than 50 nM. Under `CC(c1ccc2scnc2c1)N1CCc2ccc(S(C)(=N)=O)cc2CC1` (racemic) [Example 37] stands less than 50 nM. `CC(=O)Nc1ccc2c(c1)CCN(C(C)c1ccc3scnc3c1)CC2` (racemic) [Example 43] had a concentration for half-maximal inhibition (IC50) of less than 50 nM. The compound `CC(c1ccc2scnc2c1)N1CCc2cc(S(C)(=O)=O)cnc2CC1` (racemic) [Example 51] returned a half-maximal inhibitory concentration (IC50) of less than 50 nM. `CC(c1ccc2scnc2c1)N1CCc2cc(S(C)(=N)=O)cnc2CC1` (racemic) [Example 52] displayed an IC50 of less than 50 nM. Under `Cc1cc(Oc2ccc3c(c2)CCN(C(C)c2ccc4scnc4c2)CC3)ccn1` (racemic) [Example 60] stands less than 50 nM. `Cc1cc(Oc2ccc3c(c2)CCN(C(C)c2ccc4scnc4c2)CC3)nc(C)n1` (racemic) [Example 62] displayed an IC50 of less than 50 nM. Under `CC(=O)Nc1cnc2c(c1)CCN(C(C)c1ccc3scnc3c1)CC2` (racemic) [Example 92] stands less than 50 nM; under `CC(c1ccc2scnc2c1)N1CCCc2ncc([N+](=O)[O-])cc2C1` (racemic) [Example 106], 200 to 1000 nM. The figure for `CC(=O)Nc1ccc2c(c1)CCCN(C(C)c1ccc3scnc3c1)C2` (racemic) [Example 107] is 200 to 1000 nM. Under `CC(c1ccc2scnc2c1)N1CCc2cnc(N)nc2CC1` (racemic) [Example 108] stands less than 50 nM. `CC(c1ccc2scnc2c1)N1CCc2ccc(-c3cnn(C)c3)cc2CC1` (racemic) [Example 109] displayed a concentration for half-maximal inhibition (IC50) of less than 50 nM.

For the compound `CC(c1ccc2scnc2c1)N1CCCc2cc(-c3cnn(C)c3)ccc2C1` (racemic) [Example 110], the 50% inhibitory concentration (IC50) was in the range of 200 to 1000 nM.

Values taken from US11795165B2, “Tetrahydro-benzoazepine glycosidase inhibitors” (Asceneuron SA, priority 2018, dated 2023).
